# Target: T1, human OX2 receptor (Homo sapiens, UniProt O43614)
# T1 construct: expressed in transfected cells
# T1 sequence (O43614 1-444): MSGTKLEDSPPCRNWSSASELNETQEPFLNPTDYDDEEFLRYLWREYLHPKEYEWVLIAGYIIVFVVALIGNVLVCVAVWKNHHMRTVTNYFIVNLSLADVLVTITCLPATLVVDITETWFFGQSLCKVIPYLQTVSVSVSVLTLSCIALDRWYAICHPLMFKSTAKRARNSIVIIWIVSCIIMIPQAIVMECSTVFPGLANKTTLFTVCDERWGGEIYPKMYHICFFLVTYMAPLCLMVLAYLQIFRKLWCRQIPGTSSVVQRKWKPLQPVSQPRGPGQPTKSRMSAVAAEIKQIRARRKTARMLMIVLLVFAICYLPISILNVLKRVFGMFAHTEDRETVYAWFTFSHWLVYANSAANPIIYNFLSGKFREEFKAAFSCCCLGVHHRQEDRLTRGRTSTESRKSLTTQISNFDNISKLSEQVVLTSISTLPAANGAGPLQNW
# Test: Measurement of orexin type 2 receptor agonist activity (calcium fluorescence, Fluo-4, FDSS)
# Format: cell-based
# Details: 3 uM test compound; CHO cells expressing human OX2 receptor; DMSO = 0%, 10 nM orexin A (human) = 100%
# Outline: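 CHO-K1 cells stably expressing human OX2 receptor (residues 1-444) were loaded with Fluo-4 AM plus probenecid. Calcium fluorescence after compound addition was recorded for 1 min 40 s. Activity (%) was scaled between DMSO (0%) and 10 nM orexin A final (100%).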
row,SMILES,"OX2R agonist activity (3 uM, %) [%]"
1,"CS(=O)(=O)N[C@@H]1Cn2c(cn(-c3noc4cc(CO)cc(-c5c(F)cc(F)cc5F)c34)c2=O)C1(F)F [Example 128, N-{(6R)-7,7-difluoro-2-[6-(hydroxymethyl)-4-(2,4,6-trifluorophenyl)-1,2-benzoxazol-3-yl]-3-oxo-2,5,6,7-tetrahydro-3H-pyrrolo[1,2-c]imidazol-6-yl}methanesulfonamide]",98
2,"CCS(=O)(=O)N[C@@H]1Cn2c(cn(-c3noc4cc(C(F)F)cc(-c5c(F)cc(F)cc5F)c34)c2=O)C1(F)F [Example 165, N-{(6R)-2-[6-(difluoromethyl)-4-(2,4,6-trifluorophenyl)-1,2-benzoxazol-3-yl]-7,7-difluoro-3-oxo-2,5,6,7-tetrahydro-3H-pyrrolo[1,2-c]imidazol-6-yl}ethanesulfonamide]",97
3,"O=c1n(-c2noc3ccc(F)c(-c4c(F)cc(F)cc4F)c23)cc2n1C[C@@H](NS(=O)(=O)CF)C2(F)F [Example 293, N-{(6R)-7,7-difluoro-2-[5-fluoro-4-(2,4,6-trifluorophenyl)-1,2-benzoxazol-3-yl]-3-oxo-2,5,6,7-tetrahydro-3H-pyrrolo[1,2-c]imidazol-6-yl}-1-fluoromethanesulfonamide]",113
4,"CCOc1cc(-c2c(F)cc(F)cc2F)c2c(-n3cc4n(c3=O)C[C@@H](NS(C)(=O)=O)C4(F)F)noc2c1 [Example 189, N-{(6R)-2-[6-ethoxy-4-(2,4,6-trifluorophenyl)-1,2-benzoxazol-3-yl]-7,7-difluoro-3-oxo-2,5,6,7-tetrahydro-3H-pyrrolo[1,2-c]imidazol-6-yl}methanesulfonamide]",103
5,"O=c1n(-c2noc3cc(C(F)F)cc(-c4c(F)cc(F)cc4F)c23)cc2n1C[C@@H](NS(=O)(=O)CF)C2(F)F [Example 267, N-{(6R)-2-[6-(difluoromethyl)-4-(2,4,6-trifluorophenyl)-1,2-benzoxazol-3-yl]-7,7-difluoro-3-oxo-2,5,6,7-tetrahydro-3H-pyrrolo[1,2-c]imidazol-6-yl}-1-fluoromethanesulfonamide]",101
6,"CS(=O)(=O)N[C@@H]1Cn2c(cn(-c3noc4cc(Cl)cc(-c5c(F)cccc5F)c34)c2=O)C1(F)F [Example 73, N-{(6R)-2-[6-chloro-4-(2,6-difluorophenyl)-1,2-benzoxazol-3-yl]-7,7-difluoro-3-oxo-2,5,6,7-tetrahydro-3H-pyrrolo[1,2-c]imidazol-6-yl}methanesulfonamide]",105
7,"Cc1cc2onc(-n3cc4n(c3=O)C[C@@H](NS(=O)(=O)N(C)C)C4(F)F)c2c(-c2c(F)cc(F)cc2F)n1 [Example 218, N′-{(6R)-7,7-difluoro-2-[6-methyl-4-(2,4,6-trifluorophenyl)[1,2]oxazolo[4,5-c]pyridin-3-yl]-3-oxo-2,5,6,7-tetrahydro-3H-pyrrolo[1,2-c]imidazol-6-yl}-N,N-dimethylsulfuric diamide]",108
8,"Cc1cc(-c2c(F)cccc2F)c2c(-n3cc4n(c3=O)C[C@@H](NS(C)(=O)=O)C4(F)F)noc2c1 [Example 180, N-{(6R)-2-[4-(2,6-difluorophenyl)-6-methyl-1,2-benzoxazol-3-yl]-7,7-difluoro-3-oxo-2,5,6,7-tetrahydro-3H-pyrrolo[1,2-c]imidazol-6-yl}methanesulfonamide]",100
9,"CS(=O)(=O)N[C@@H]1Cn2c(cn(-c3noc4cc(C(F)F)cc(-c5c(F)cc(F)cc5F)c34)c2=O)C1(F)F [Example 141, N-{(6R)-2-[6-(difluoromethyl)-4-(2,4,6-trifluorophenyl)-1,2-benzoxazol-3-yl]-7,7-difluoro-3-oxo-2,5,6,7-tetrahydro-3H-pyrrolo[1,2-c]imidazol-6-yl}methanesulfonamide]",94
10,"CCS(=O)(=O)NC1Cn2c(cn(-c3noc4cc(F)cc(-c5c(F)cc(F)cc5F)c34)c2=O)CC1(F)F (single isomer, unassigned) [Example 240, N-{(6R*)-7,7-difluoro-2-[6-fluoro-4-(2,4,6-trifluorophenyl)-1,2-benzoxazol-3-yl]-3-oxo-2,3,5,6,7,8-hexahydroimidazo[1,5-a]pyridin-6-yl}ethanesulfonamide]",106
11,"CCS(=O)(=O)N[C@@H]1Cn2c(cn(-c3noc4cc(C(F)(F)F)cc(-c5c(F)cc(F)cc5F)c34)c2=O)C1(F)F [Example 157, N-{(6R)-7,7-difluoro-3-oxo-2-[6-(trifluoromethyl)-4-(2,4,6-trifluorophenyl)-1,2-benzoxazol-3-yl]-2,5,6,7-tetrahydro-3H-pyrrolo[1,2-c]imidazol-6-yl}ethanesulfonamide]",96
12,"Cc1cc(-c2c(F)cc(F)cc2F)c2c(-n3cc4n(c3=O)C[C@@H](NS(C)(=O)=O)C4(F)F)noc2n1 [Example 174, N-{(6R)-7,7-Difluoro-2-[6-methyl-4-(2,4,6-trifluorophenyl) [1,2]oxazolo [5,4-b]pyridin-3-yl]-3-oxo-2,5,6,7-tetrahydro-3H-pyrrolo[1,2-c]imidazol-6-yl}methanesulfonamide]",95
13,"Cc1cc2onc(-n3cc4n(c3=O)C[C@@H](NS(C)(=O)=O)C4(F)F)c2c(-c2c(F)cc(F)cc2F)c1F [Example 184, N-{(6R)-7,7-difluoro-2-[5-fluoro-6-methyl-4-(2,4,6-trifluorophenyl)-1,2-benzoxazol-3-yl]-3-oxo-2,5,6,7-tetrahydro-3H-pyrrolo[1,2-c]imidazol-6-yl}methanesulfonamide]",101
14,"Cn1nc2cccc(-c3c(F)cccc3F)c2c1-n1cc2n(c1=O)C[C@@H](NS(C)(=O)=O)C2 [Example 88, N-{(6S)-2-[4-(2,6-difluorophenyl)-2-methyl-2H-indazol-3-yl]-3-oxo-2,5,6,7-tetrahydro-3H-pyrrolo[1,2-c]imidazol-6-yl}methanesulfonamide]",79

# The next lines start with the values.
row,"OX2R agonist activity (3 uM, %) [%]",SMILES
1,113,"CS(=O)(=O)N[C@@H]1CN2C(=O)N(c3noc4cc(F)cc(-c5c(F)cccc5F)c34)CC[C@@H]2C1(F)F [Example 314, N-{(4aR,6R)-2-[4-(2,6-difluorophenyl)-6-fluoro-1,2-benzoxazol-3-yl]-5,5-difluoro-1-oxooctahydropyrrolo[1,2-c]pyrimidin-6-yl}methanesulfonamide]"
2,104,"CNS(=O)(=O)N[C@@H]1CN2C(=O)N(c3noc4cccc(-c5c(F)cccc5F)c34)C[C@@H]2C1(F)F [Example 17, N-{(6R,7aR)-2-[4-(2,6-difluorophenyl)-1,2-benzoxazol-3-yl]-7,7-difluoro-3-oxohexahydro-1H-pyrrolo[1,2-c]imidazol-6-yl}-N′-methylsulfuric diamide]"
3,105,"CCS(=O)(=O)N[C@@H]1CN2C(=O)N(c3noc4cccc(-c5c(F)cccc5F)c34)C[C@@H]2[C@@H]1F (relative stereo) [Example 4, rel-N-{(6R,7S,7aR)-2-[4-(2,6-difluorophenyl)-1,2-benzoxazol-3-yl]-7-fluoro-3-oxohexahydro-1H-pyrrolo[1,2-c]imidazol-6-yl}ethanesulfonamide]"
4,103,"CCS(=O)(=O)N[C@@H]1CN2C(=O)N(c3noc4cccc(-c5cccs5)c34)CC[C@@H]2C1(F)F [Example 328, N-{(4aR,6R)-5,5-difluoro-1-oxo-2-[4-(thiophen-2-yl)-1,2-benzoxazol-3-yl]octahydropyrrolo[1,2-c]pyrimidin-6-yl}ethanesulfonamide]"
5,100,"O=C1N(c2noc3cccc(-c4c(F)cccc4F)c23)C[C@@H]2C[C@H](NS(=O)(=O)C(F)F)CN12 [Example 43, N-{(6S,7aS)-2-[4-(2,6-difluorophenyl)-1,2-benzoxazol-3-yl]-3-oxohexahydro-1H-pyrrolo[1,2-c]imidazol-6-yl}-1,1-difluoromethanesulfonamide]"
6,106,"CS(=O)(=O)N[C@@H]1CN2C(=O)N(c3noc4cccc(-c5ccccc5Cl)c34)CC[C@@H]2C1(F)F [Example 291, N-{(4aR,6R)-2-[4-(2-chlorophenyl)-1,2-benzoxazol-3-yl]-5,5-difluoro-1-oxooctahydropyrrolo[1,2-c]pyrimidin-6-yl}methanesulfonamide]"
7,110,"CS(=O)(=O)N[C@@H]1CN2C(=O)N(c3noc4cccc(-c5c(F)cccc5F)c34)CC[C@@H]2C1(F)F [Example 206, N-{(4aR,6R)-2-[4-(2,6-difluorophenyl)-1,2-benzoxazol-3-yl]-5,5-difluoro-1-oxooctahydropyrrolo[1,2-c]pyrimidin-6-yl}methanesulfonamide]"
8,109,"Cc1cc2onc(N3CC[C@H]4N(C[C@@H](NS(=O)(=O)C5CC5)C4(F)F)C3=O)c2c(-c2c(F)cc(F)cc2F)n1 [Example 233, N-{(4aR,6R)-5,5-difluoro-2-[6-methyl-4-(2,4,6-trifluorophenyl)[1,2]oxazolo[4,5-c]pyridin-3-yl]-1-oxooctahydropyrrolo[1,2-c]pyrimidin-6-yl}cyclopropanesulfonamide]"
9,105,"CCOc1cc(-c2c(F)cccc2F)c2c(N3C[C@H]4N(C[C@@H](NS(C)(=O)=O)C4(F)F)C3=O)noc2c1 [Example 145, N-{(6R,7aR)-2-[4-(2,6-difluorophenyl)-6-ethoxy-1,2-benzoxazol-3-yl]-7,7-difluoro-3-oxohexahydro-1H-pyrrolo[1,2-c]imidazol-6-yl}methanesulfonamide]"
